This note sets out measurements from US20110217727A1, “METHOD FOR PATTERNING MAGNETIC MATERIALS IN LIVE CELL, METHOD FOR IMAGING PATTERN OF MAGNETIC MATERIALS, AND APPARATUS USED FOR SAME” (MEDISCOV INC., priority 2008, published 2011).

The target of one assay is T1, SNF1LK-EGFP (Homo sapiens, UniProt P57059).
T1 construct: ORF(open reading frame) clone without a stop codon was purchased from Open Biosystems; expressed in transfected cells; host or cells: HeLa
In words: Fluorescent pattern of SNF1LK-EGFP co-localized with magnetic materials in live HeLa cells under a magnetic field. It counts as cell-based. The settings on record: HeLa cells transfected with CMV-SNF1LK-EGFP; ligand presented on magnetic particles (MNP); NDGA 25~50 μM; magnetic field applied; FIG. 10(B).

The target of the next assay is CSK-EGFP (Homo sapiens, UniProt P41240). In words: Fluorescent pattern of CSK-EGFP co-localized with magnetic materials in live HeLa cells under a magnetic field. Format: cell-based. The settings on record: HeLa cells transfected with CMV-CSK-EGFP; ligand presented on magnetic particles (MNP); NDGA 25~50 μM; magnetic field applied; FIG. 10(A).
Chain of CSK-EGFP (P41240 whole entry): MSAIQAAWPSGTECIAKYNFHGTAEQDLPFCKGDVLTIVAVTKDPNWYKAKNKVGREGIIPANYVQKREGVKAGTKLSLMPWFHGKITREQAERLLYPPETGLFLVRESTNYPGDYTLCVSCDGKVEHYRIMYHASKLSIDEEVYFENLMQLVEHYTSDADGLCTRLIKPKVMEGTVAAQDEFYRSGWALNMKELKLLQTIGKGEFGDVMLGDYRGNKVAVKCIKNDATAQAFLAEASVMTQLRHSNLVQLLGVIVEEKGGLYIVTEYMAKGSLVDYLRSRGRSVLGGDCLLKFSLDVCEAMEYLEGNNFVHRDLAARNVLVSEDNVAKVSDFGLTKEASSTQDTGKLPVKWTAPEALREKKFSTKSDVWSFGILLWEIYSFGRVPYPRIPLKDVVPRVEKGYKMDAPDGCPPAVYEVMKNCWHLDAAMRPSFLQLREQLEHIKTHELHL

T1 sequence (P57059 whole entry): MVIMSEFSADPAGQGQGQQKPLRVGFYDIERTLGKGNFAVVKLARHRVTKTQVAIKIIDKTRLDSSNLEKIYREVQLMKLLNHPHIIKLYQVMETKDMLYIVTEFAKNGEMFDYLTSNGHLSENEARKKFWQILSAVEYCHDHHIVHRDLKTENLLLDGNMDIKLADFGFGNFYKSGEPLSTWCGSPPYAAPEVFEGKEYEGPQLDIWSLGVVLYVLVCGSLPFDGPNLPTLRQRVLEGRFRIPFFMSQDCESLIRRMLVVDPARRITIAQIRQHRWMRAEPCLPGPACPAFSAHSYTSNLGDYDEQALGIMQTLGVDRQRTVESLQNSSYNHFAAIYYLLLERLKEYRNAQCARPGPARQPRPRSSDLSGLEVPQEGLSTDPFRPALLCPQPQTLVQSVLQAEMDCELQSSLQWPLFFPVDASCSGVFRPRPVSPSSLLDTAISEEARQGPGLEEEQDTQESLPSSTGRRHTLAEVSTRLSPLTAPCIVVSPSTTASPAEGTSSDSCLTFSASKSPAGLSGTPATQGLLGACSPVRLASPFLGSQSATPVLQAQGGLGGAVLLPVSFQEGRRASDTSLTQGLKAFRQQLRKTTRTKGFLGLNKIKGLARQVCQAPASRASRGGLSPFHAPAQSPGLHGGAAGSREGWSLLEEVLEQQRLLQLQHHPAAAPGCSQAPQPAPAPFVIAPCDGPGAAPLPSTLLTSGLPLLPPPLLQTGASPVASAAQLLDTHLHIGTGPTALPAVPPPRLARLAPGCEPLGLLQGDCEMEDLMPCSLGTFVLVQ
Description for CSK-EGFP: (§1) In this embodiment, it was observed whether a magnetized pattern of a plurality of magnetic materials formed by applying a magnetic field could be imaged by fluorescent labels when a surface-modified magnetic material was labeled with a fluorescent label through a mediator indirectly as well as directly. In addition, it was identified whether a fluorescent pattern was formed and overlapped (co-localized) with a pattern formed by magnetic materials in a direction of a line of magnetic force or not.
(§2) In addition, CSK (GenBank Acc. No. NM—004383.1) or SNF1LK (GenBank Acc. No. BCO38504) which binds to dasatinib was used for another linker constituting a mediator.
After HeLa cells were subcultured to 5,000˜10,000 cells/well on a 96-well plate, the HeLa cells were transfected by the expression vector DNA prepared as above. […] Magnetic materials coated with dasatinib-biotin were into the cells transfected with DNA by the method mentioned in Example 2, and then NDGA (Nordihydroguaiaretic acid, Sigma) was treated to the final concentration of 25˜50 μM.
In this embodiment, Olympus fluorescence microscope, FV1000, equipped with the object lens of Uplan Apo 40×/0.85 was used to obtain transmitted images in the cells.
Description for SNF1LK-EGFP: as §1, §2
A clone of SNF1LK (GenBank Acc. No. BCO38504) ORF(open reading frame) clone without a stop codon was purchased from Open Biosystems. SNF1LK ORF clone and CSK ORF clone were cloned into pCMV-DEST-EGFP by a known cloning method to produce CMV-SNF1LK-EGFP and CMV-CSK-EGFP expression vectors (Hartley, et al. (2000) DNA cloning using in vitro site-specific recombination. Genome Res. 10, 1788-1795).
After HeLa cells were subcultured to 5,000˜10,000 cells/well on a 96-well plate, the HeLa cells were transfected by the expression vector DNA prepared as above. […]

`Cc1nc(Nc2ncc(C(=O)Nc3c(C)cccc3Cl)s2)cc(N2CCN(CCO)CC2)n1` [dasatinib, N-(2-chloro-6-methyl-phenyl)-2-(6-(4-(2-hydroxyethyl)-piperazin-1-yl)-2-methylpyrimidin-4-ylamino)thiazole-5-carboxamide]: the “fluorescent pattern of EGFP in a magnetized direction (direction of a line of magnetic force)” value at SNF1LK-EGFP and on CSK-EGFP was “identified” throughout.
